According to paper PMC6271077, “Synthesis, Anticancer and Antibacterial Activity of Salinomycin N-Benzyl Amides” (Molecules, 2014):
Read-outs that look alike come from different tables or passages of the source.

Tests used:
HL-60 = assay: Antiproliferative MTT assay, HL-60; type: cell-based, human; settings: for IC50: Homo sapiens, read-out: IC50 HL-60; for SI HL-60: SI = IC50 BALB/3T3 / IC50 HL-60
Procedure, shortened: (§1)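 Leukemia cells seeded at 10^4 per well and exposed 24 h later to four concentrations (100–0.1 µg/mL) for 72 h; HL-60/vinc cultured with doxorubicin. MTT added 4 h, formazan lysed 24 h, absorbance 570 nm; IC50 from triplicates, ≥3 independent experiments.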

HL-60/vinc = assay: Antiproliferative MTT assay, HL-60/vinc; type: cell-based, human; settings: for IC50: Homo sapiens, HL60/vinc, 72 h, read-out: IC50 HL-60/vinc; for IR HL-60/vinc: IR = IC50 HL-60/vinc / IC50 HL-60; for SI HL-60/vinc: SI = IC50 BALB/3T3 / IC50 HL-60/vinc
Procedure, shortened: as §1

MRSA = assay: MIC microdilution, MRSA strains overall (range given); type: cell-based, Staphylococcus aureus; settings: hospital MRSA strains
[1] = system: HL-60, HL-60/vinc, LoVo, LoVo/dx; assay: Antiproliferative assays, all four cancer cell lines (range given); type: cell-based; settings: Homo sapiens, read-out: IC50 (range over the cancer cell lines)
Source text: Four human cancer cell lines and one normal cell line were used to evaluate anticancer activity of SAL and its N-benzyl amides: human acute promyelocytic leukemia (HL-60) and its vincristine resistant subline (HL-60/vinc), human colon adenocarcinoma cell lines sensitive (LoVo) and resistant to doxorubicin (LoVo/dx) as well as also normal murine embryonic fibroblast cell line (BALB/3T3). The BALB/3T3 cell line was purchased from the American Type Culture Collection (ATCC Rockville, MD, USA), HL-60 cell line from European Type Culture Collection by courtesy of Professor Spik and Dr Mazurier (Laboratory of Biological Chemistry USTL, Lille, France) and HL-60/vinc, LoVo and LoVo/dx by courtesy of Prof. E. Borowski (Technical University of Gdańsk, Gdańsk, Poland). All the cell lines are maintained in the Institute of Immunology and Experimental Therapy (IIET), Wrocław, Poland.
Human leukemia cells were cultured in ISCOVE medium (IIET, Wroclaw, Polond) containing 10% fetal bovine serum and 2 mM L-glutamine (Sigma Aldrich) and 1 µg/100 mL […] for HL-60/vinc (Sigma Aldrich). Human colon adenocarcinoma cell lines were cultured in mixture of OptiMEM and RPMI 1640 (1:1) medium (IIET) supplemented with 5% fetal bovine serum (Thermo Fisher Scientific, Waltham, MA, USA), 2 mM L-glutamine, 1 mM sodium pyruvate (Sigma Aldrich) and 10 µg/100 mL doxorubicin for LoVo/dx (Sigma Aldrich). Murine embryonic fibroblast cells were cultured in Dulbecco medium (Gibco, Darmstadt, Germany) supplemented with 10% fetal bovine serum (Thermo Fisher Scientific) and 2 mM L-glutamine (Sigma Aldrich). All culture media contained antibiotics: 100 U/mL penicillin (Sigma Aldrich) and 100 µg/mL streptomycin (Polfa-Tarchomin, City, Poland). All cell lines were cultured during entire experiment in humid atmosphere at 37 °C and 5% CO2.
Twenty four hours before adding the tested compounds all cell lines were seeded in 96-well plates (Sarstedt, Nümbrecht, Germany) in appropriate media with 10^4 cells per well. All cell lines were exposed to each tested agent at four different concentrations from the range 100 to 0.1 µg/mL for 72 h. The cells were also exposed to the reference drugs: cisplatin (Accord, London, UK) and doxorubicin hydrochloride (Fluka, St. Louis, MO, USA). Additionally, all cell lines were exposed to DMSO (the solvent used for tested compounds, Sigma Aldrich) at the concentrations corresponding to those in the tested agent dilutions. For adherent cells sulphorodamine B assay was performed and MTT assay for leukemia cells.
After 72 h of incubation with tested compounds the cells were fixed in situ by gently adding of 50 µL per well of cold 50% trichloroacetic acid TCA (Avantor Performance Materials, City, Poland) and were incubated at 4 °C for 1 h. Then the wells were washed four times with water and air-dried. Next, 50 µL of 0.2% solution of sulphorodamine B (Sigma Aldrich) in 1% acetic acid (Avantor Performance Materials) were added to each well and plates were incubated at room temperature for 0.5 h. After incubation time, unbound dye was removed by washing plates four times with 1% acetic acid, whereas the stain bound to cells was solubilized with 150 µL of 10 mM Tris base (Sigma Aldrich). Absorbance of each solution was read at Synergy H4 photometer (BioTek Instruments, Winooski, VT, USA) at 540 nm wavelength.
Proliferation inhibition of leukemia cells by tested compounds was measured by means of MTT assay. […]

[2] = system: breast cancer stem cells (CSCs); design: method as in PMID 19682730; settings: versus Taxol; cited from earlier work

| Structure (SMILES) | IC50 (HL-60; HL-60, 72 h, MTT, mean ± SD, NA: not active in concentrations used (up to 100 µg/mL)) [nM] | SI HL-60 (HL-60) | IC50 (HL-60/vinc) [nM] | IR HL-60/vinc (HL-60/vinc) | SI HL-60/vinc (HL-60/vinc) | MIC (range over MRSA strains) (MRSA) [µg/mL] | IC50 (HL-60; HL-60, 72 h) [nM] | IC50 [1] [nM] | fold more effective than Taxol [2] [fold] |
| --- | --- | --- | --- | --- | --- | --- | --- | --- | --- |
| CC[C@H](C(=O)NCc1ccc(F)cc1)C1CC[C@H](C)C([C@@H](C)[C@H](O)[C@H](C)C(=O)[C@H](CC)C2O[C@]3(C=C[C@@H](O)C4(CC[C@@](C)(C5CC[C@](O)(CC)[C@H](C)O5)O4)O3)[C@H](C)C[C@@H]2C)O1 (stereo partly shown) [F-p] | 3600 ± 690 | 2.40 | 11800 ± 2560 | 3.28 | 0.73 | 16 to 64 | – | – | – |
| CC[C@@H](C(=O)[C@@H](C)[C@@H](O)[C@H](C)[C@@H]1O[C@@H]([C@@H](CC)C(=O)O)CC[C@@H]1C)[C@H]1O[C@]2(C=C[C@@H](O)[C@]3(CC[C@@](C)([C@H]4CC[C@](O)(CC)[C@H](C)O4)O3)O2)[C@H](C)C[C@@H]1C [SAL, Salinomycin] | – | 39.45 | 2330 ± 120 | 7.06 | 5.59 | – | 330 ± 120 | 330 to 2330 | ~100 |
